Assay: gradient 5% acetonitrile 3 min, to 50% in 2 min, to 85% in 15 min, held 3 min, 100 µL/min
Conditions: column: Zorbax Extend-C18 2.1 x 50 mm; eluents: water / acetonitrile, 0.1% formic acid
Outline: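 Retention time was recorded from adduct peaks, which were picked computationally and each inspected manually. Pure standards ran in mixtures of ~100 molecules on HPLC coupled to a quadrupole time-of-flight mass spectrometer, in positive and negative ionization mode, through a Zorbax Extend-C18 column (2.1 × 50 mm, 1.8 μm) at 100 μL/min. Eluents were water and acetonitrile, each with 0.1% formic acid.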

Row | RP-LC retention time | Structure (SMILES)
1 | 866 s | CCOC(=O)c1scc(-c2ccc(C)cc2)c1S(=O)(=O)N1CCN(c2ccccn2)CC1
2 | 866 s | NC(=O)c1c(NC(=O)C2CCCN(C(=O)C3CCCC3)C2)sc2c1CCCC2 (stereo unspecified)
3 | 764 s | CCOC(=O)c1sc(NC(=O)Cn2nc3c(cc2=O)CCCC3)nc1C
4 | 559 s | Cc1ccc2cc(CCC(=O)NCCN3CCN(C)CC3)c(=O)[nH]c2c1
5 | 742 s | CC(=O)N1CCc2cc(N3CC(C(=O)Nc4cccc(Cl)c4F)CC3=O)ccc21 (stereo unspecified)
6 | 1000 s | CCc1nc(-c2csc(S(=O)(=O)N3CCCC(C(=O)Nc4cccc(OC)c4)C3)c2)no1 (stereo unspecified)
7 | 730 s | CSc1ccc(NC(=O)C2CC(=O)N(c3ccc4c(c3)CCN4C(C)=O)C2)cc1 (stereo unspecified)
8 | 717 s | CC(=O)N1CCc2cc(N3CC(C(=O)Nc4ccc(C)cc4F)CC3=O)ccc21 (stereo unspecified)
9 | 861 s | COc1cccc(S(=O)(=O)N2CCC(N3CCN(Cc4ccc(C)cc4)C(=O)C3=O)CC2)c1
10 | 591 s | O=C(NCc1cccnc1)C1c2ccccc2C(=O)N(C2CCCC2)C1c1cccs1 (stereo unspecified)
11 | 684 s | O=C(NCc1ccccc1)C1CC(=O)N(c2n[nH]c3cccc(F)c23)C1 (stereo unspecified)
12 | 738 s | Cc1ccc(CNC2=NCCNC23CCN(S(=O)(=O)c2ccccc2C)CC3)cc1
13 | 657 s | CCNC(=O)C1CCCN(c2nc3ncn(CC(=O)Nc4ccc(F)cc4)c(=O)c3s2)C1 (stereo unspecified)
14 | 864 s | O=C1COc2cc(S(=O)(=O)N3CCCC3C(=O)NC3CCCCCCC3)c(Cl)cc2N1 (stereo unspecified)
15 | 757 s | COCCNc1c(-c2ccc(F)cc2)nc2sc(C(=O)N3CCCC3)c(C)n12
16 | 614 s | O=C(NCCN1CCCCC1)c1ccc2c(=O)n(-c3ccccc3)c(N3CCCC3)nc2c1
17 | 726 s | Cc1nn(CCC(=O)NCCc2ccco2)c(=O)c2nn(-c3ccccc3)c(C)c12
18 | 860 s | CC1CCc2c(sc3ncnc(SCC(=O)N4CCOCC4)c23)C1 (stereo unspecified)
19 | 816 s | Cc1cc(C(=O)N2CCCCC2)c2c(=O)n(CC(=O)Nc3ccc(F)cc3F)c(=O)n(C)c2n1
20 | 1070 s | O=C(Nc1cccc(Cl)c1)C1CCCN(C(=O)Cc2cccc3ccccc23)C1 (stereo unspecified)
21 | 1230 s | CCn1cc(-c2ccc(C)cc2)cc1C(=O)N1CCC(C)CC1
22 | 828 s | COCCN1C(=O)c2ccccc2C(C(=O)Nc2cccc(C)n2)C12CCCCC2 (stereo unspecified)
23 | 661 s | O=C(CCc1nc2ccccc2s1)NC1CCN(C(=O)N2C[C@H]3C[C@H](C2)[C@H]2CCCC(=O)N2C3)CC1
24 | 852 s | Cc1ccsc1C(=O)N1CCC2(CC1)NC(=O)N(Cc1cccc(Cl)c1)C2=O
25 | 864 s | O=C(NCc1ccc(F)cc1Cl)c1csc(C(=O)N2CCCC2)n1
26 | 706 s | CCn1cnc(S(=O)(=O)N2CCC(C(=O)Nc3ccc(OC)cc3OC)CC2)c1
27 | 819 s | COc1ccc(NC(=O)C2CCCN(S(=O)(=O)c3c[nH]c(C(=O)N4CCCC4)c3)C2)cc1Cl (stereo unspecified)
28 | 675 s | O=C(NCC1CCCCC1)c1ccc2ncnc(N3CCCC3)c2c1
29 | 802 s | Cc1ccc(C(=O)NC2CCN(c3nnc4ccc(C(F)(F)F)cn34)CC2)cc1

Further lines, the molecule ahead of its results:

Row | Structure (SMILES) | RP-LC retention time
30 | CCCc1ccc(S(=O)(=O)N2CCC3(CC2)NCCN=C3NCc2cccc(OC)c2)cc1 | 834 s
31 | Cc1c(C(=O)Nc2c3c(nn2C(C)(C)C)CSC3)cccc1[N+](=O)[O-] | 814 s
32 | COc1ccc2cc(C(=O)N3CCN(c4cc(=O)n(C(C)C)c(=O)n4C(C)C)CC3)[nH]c2c1 | 909 s
33 | Cc1ccc(F)c(NC(=O)c2cn3c(n2)CSCC3)c1 | 811 s
34 | COc1ccc(S(=O)(=O)N2CCCC(C(=O)NCc3cccnc3)C2)cc1C (stereo unspecified) | 623 s
35 | CCCCN(CCCC)C(=O)C1CCCN1S(=O)(=O)c1cccc2nsnc12 (stereo unspecified) | 1080 s
36 | O=C(CCn1cnc2cc(-c3noc(-c4ccc(F)cc4)n3)ccc21)N1CCOCC1 | 706 s
37 | COc1ccc(-c2nc(-c3ccc4c(c3)oc(=O)n4C(C)C)no2)cc1OC | 1070 s
38 | Cc1ccsc1C(=O)N1CCc2cc(-c3ccno3)ccc21 | 924 s
39 | CC(C)NC(=O)c1ccc2c(c1)CCCN2S(C)(=O)=O | 717 s
40 | Cc1ccc(S(=O)(=O)c2cnc(N3CCC(C(N)=O)(N4CCCCC4)CC3)nc2N)cc1C | 654 s
41 | N#Cc1ccc(C(=O)Nc2cnc(-c3ccc(Cl)cc3)nc2)cc1 | 1070 s
42 | O=C(CCc1c(-c2cccc(Cl)c2)nc2ccccn12)N1CCN(c2ccc(F)cc2)CC1 | 724 s
43 | Cc1cc(C)c(S(=O)(=O)N2CCCC2c2nc(-c3ccccc3)no2)cc1C (stereo unspecified) | 1260 s
44 | O=C(NCc1ccccn1)c1cc(-c2cccnc2)nc2ccc(Br)cc12 | 898 s
45 | Cc1ccc(C)c(N2CCN(c3ccnc(SCC(=O)Nc4ccc(C)c(F)c4)n3)CC2)c1 | 955 s
46 | COc1ccc(C(=O)CSc2nnc(-c3cc(C)oc3C)o2)cc1OC | 911 s
47 | CCN1CCN(CCCNC(=O)Cc2c(C(=O)O)c(C)cn2C)CC1 | 549 s
48 | COc1ccc(-c2nnc(-c3ccc(-n4ccnc4)nc3)o2)cc1F | 642 s

Row | Structure (SMILES) | RP-LC retention time
49 | COc1ccc(NC(=O)Cn2cnc3cc4c(cc32)OCCO4)cc1Cl | 658 s
50 | O=C(NCc1nc(-c2ccc(NS(=O)(=O)c3ccc(F)cc3)cc2)no1)c1cccs1 | 867 s
51 | CC(=O)c1ccc(NC(=O)CSc2ncc(-c3ccc(C)c(C)c3)o2)cc1 | 970 s
52 | CSc1ncccc1C(=O)NCc1nn(C(C)C)c2ccccc12 | 830 s
53 | COc1ccc(OC)c(CNC(=O)c2c(C)oc3c2C2=NCCN2C=N3)c1 | 638 s
54 | CCn1nccc1-c1cccc(-c2noc(C3CC(=O)N(c4ccc(C)c(C)c4)C3)n2)c1 (stereo unspecified) | 1080 s
55 | Brc1ccc(-c2noc(Cc3nnc(-c4ccccc4)o3)n2)cc1 | 1110 s
56 | O=C(c1ccccc1)N1CCN(C(=O)N(c2ccccc2)c2ccccc2)CC1 | 808 s
57 | COC(=O)C1C(=O)C2=C(CC1C)NC(=O)CC2c1cccc(C)c1 (stereo unspecified) | 675 s
58 | Cc1nc2c(sc3nc(-c4ccccc4)ccc32)c(=O)n1CC(=O)NCc1ccc(Cl)cc1 | 1210 s
59 | COc1cccc(NS(=O)(=O)c2ccc(-c3nnc(C4CCC4)o3)o2)c1 | 881 s
60 | c1ccc(COCCc2noc(C3CN(Cc4ccncc4)C3)n2)cc1 | 605 s
61 | COc1ccc(NC(=O)c2noc3c2CCCCC3)cc1 | 989 s
62 | COc1ccc(-c2nc(-c3ccc(S(=O)(=O)N4CCCCC4)cc3)no2)cc1 | 1280 s
63 | COc1ccc(-c2cc(C(=O)N3CCCC3c3cc(C)on3)no2)cc1 (stereo unspecified) | 964 s
64 | CCn1nccc1-c1cccc(-c2noc(COc3ccc(Cl)cc3)n2)c1 | 1200 s
65 | CCCNC(=O)c1cn(-c2ccc(NC(=O)C3CC3)cn2)cn1 | 655 s
66 | CC(C)(C)c1ccc2c(c1)N(Cc1nc(-c3cccc(F)c3)no1)C(=O)CO2 | 1240 s
67 | CCc1noc(-c2cnc3nc(C)ccc3c2NCc2cc(OC)ccc2OC)n1 | 735 s

Row | Structure (SMILES) | RP-LC retention time
68 | CCCCn1cnc2c(-c3ccccc3)cn(CC(=O)NCc3ccco3)c2c1=O | 922 s
69 | Cc1ccc(C)c(N2CCN(c3ccnc(SCC(=O)NCc4ccc(Cl)cc4)n3)CC2)c1 | 942 s
70 | OC1(c2ccccc2)CCN(Cc2ccccc2)CC1 | 553 s
71 | CCn1c(=O)c(C)nc2cc(-c3noc(-c4ccc(Br)cc4)n3)ccc21 | 1270 s
72 | OC(CN1CCN(c2ccccn2)CC1)c1ccc(Cl)cc1 (stereo unspecified) | 563 s
73 | O=C(NCCc1c[nH]c2ccc(Cl)cc12)C1CCN(c2ccncc2)CC1 | 643 s
74 | Cn1c(=O)c2cc(C(=O)NCc3cccc(C(F)(F)F)c3)nn2c2ccccc21 | 945 s
75 | Cc1ccc(S(=O)(=O)Nc2cc(-c3cn4ccccc4n3)ccc2C)cc1 | 668 s
76 | CC(NC(=O)C1CCN(c2ncnc3c2oc2ccccc23)CC1)c1ccccc1 (stereo unspecified) | 735 s
77 | COc1ccccc1NC(=O)N1CCN(c2cnn3c(C)nnc3c2)CC1 | 605 s
78 | COc1ccc(-c2nc(CNC(=O)c3ccc(-c4noc(C(C)C)n4)cc3)no2)cc1 | 1000 s
79 | CC(C)CNC(=O)N1CCn2nnc(CCC(=O)N3CCOCC3)c2C1 | 604 s
80 | CCN1C[C@]2(COC)CC[C@H](OC)[C@]34C5C[C@@H]6[C@@H](OC)C[C@@]7(OCOC7(C13)[C@@H](O)C24)C5[C@H]6OC (stereo partly specified) | 614 s
81 | O=c1cc(-c2ccc(F)cc2)ncn1Cc1cccc(C(F)(F)F)c1 | 940 s
82 | O=C(Cc1cccs1)N1CCN(c2ccc(=O)n(-c3ccc(Cl)cc3)n2)CC1 | 804 s
83 | COc1ccc(NC(=O)CSc2nccc3c2ccn3Cc2ccc(F)cc2)cc1OC | 788 s
84 | COc1cc(OC)c(NC(=O)NCCCn2c(C(F)(F)F)nc3cccnc32)cc1Cl | 836 s
85 | CC(=O)Nc1cccc(NC(=O)C2CC(=O)N(c3n[nH]c4cccc(F)c34)C2)c1 (stereo unspecified) | 644 s
86 | Cc1ccc(Nc2nc(C)cc(N3CCN(S(=O)(=O)c4c(C)cc(C)cc4C)CC3)n2)cc1 | 917 s
